Results published in US12173291B2, “Unnatural base pair compositions and methods of use” (THE SCRIPPS RESEARCH INSTITUTE, priority 2017, dated 2024).

What was measured:
[1] = test system: E. coli BL21(DE3) SSO; assay: Growth of chromosomal UBP integrants with or without dNaMTP and dTPT3TP (doubling time); assay type: cell-based; details: ΔrecA-Opt and Pol II+ΔrecA integrants, dNaMTP and dTPT3TP provided together in media
Description: Mid-log phase cells WT-Opt, ΔrecA-Opt, and Pol II^+ΔrecA-Opt SSOs and their corresponding chromosomal UBP integrants (described above) were prepared using the following procedure. Saturated overnight cultures were prepared by inoculation of 2×YT containing chloramphenicol (5 μg/mL), dTPT3TP (37.5 μM), dNaMTP (150 μM), and KPi (50 mM, pH 7) from glycerol stock stabs and overnight growth (approximately 14 h) at 37° C. at 230 RPM. These cells were diluted to 0.03 OD600 in 500 μL 2×YT containing chloramphenicol (5 μg/mL), dTPT3TP (37.5 μM), dNaMTP (150 μM), and KPi (50 mM, pH 7) and grown at 37° C. at 230 RPM. Growth was monitored by OD600. Once cells reached mid-log phase (0.3-0.5 OD600), they were diluted to 0.013 OD600 in 500 μL 2×YT containing chloramphenicol (5 μg/mL), dTPT3TP (37.5 μM), dNaMTP (150 μM), and KPi (50 mM, pH 7) or 2×YT containing chloramphenicol (5 μg/mL) and KPi (50 mM, pH 7) in a 48-well plate and grown at 37° C. at 230 RPM. OD600 was measured every 30 min. This procedure was performed in triplicate for each strain starting from inoculation of overnight cultures.
OD600 data from each experiment was analyzed to obtain a theoretical cell doubling time (FIG. 2B and FIGS. 8A-8B). […]
Where ODi is the OD600 at time (t), OD0 is minimum OD600 value for a given data set, and CGrowth is the growth constant. […] Doubling times (DT) were calculated using the following equation: […]

[2] = test system: OneTaq DNA Polymerase; assay: PCR amplification of long DNAs (overlap assembly PCR); assay type: biochemical; details: presence of dTPT3TP in PCR
Description: The UBP knock-in cassette for the arsB locus (FIGS. 7A-7C) was produced through overlapping PCR of a 150-bp dsDNA containing a UBP and the kanamycin resistance gene of pKD13. The 150 bp DNA was produced with a 50-μL PCR using the same reaction solution conditions as above and the following temperature regime (time in mm:ss): [98° C. 02:00|5×(98° C. 00:10|50° C. 00:10|68° C. 04:00)|15×(98° C. 00:10|58° C. 00:10|68° C. 04:00)]. The kanamycin resistance gene amplicon was produced through PCR amplification off pKD13 using Q5 DNA polymerase as per manufacturer recommendations. The amplification of long DNAs (approximately 200 bp or longer) is inhibited by the presence of dTPT3TP. Therefore, the overlap assembly PCR of the UBP containing amplicon and kanamycin resistance gene amplicon was performed on large-scale (2 mL of reaction mixture split into 40 individual 50-μL reactions) with the following solution conditions: UBP containing amplicon (0.02 ng/μL), kanamycin resistance gene amplicon (0.02 ng/μL), primers (1 μM), dTPT3TP (5 μM), dNaMTP (100 μM), dNTPs (200 μM), MgSO4 (1.2 mM), OneTaq DNA Polymerase (0.025 U/μL), and OneTaq Standard Reaction Buffer (1 x). The reactions were subjected to the following temperature regime (time in mm:ss): [98° C. 02:00|5×(98° C. 00:10|50° C. 00:10|68° C. 04:00)|15×(98° C. 00:10|58° C. 00:10|68° C. 04:00)]. […]

SMILES	Growth defect of chromosomal UBP integrants [1]	Amplification of long DNAs (approximately 200 bp or longer) [2]
COc1cc2ccccc2cc1[C@H]1C[C@H](O)[C@@H](COP(=O)(O)OP(=O)(O)OP(=O)(O)O)O1 [dNaMTP, triphosphate of dNaM]	almost entirely eliminated	–
O=P(O)(O)OP(=O)(O)OP(=O)(O)OC[C@H]1O[C@@H](n2ccc3ccsc3c2=S)C[C@@H]1O [dTPT3TP]	almost entirely eliminated	inhibited
